Source: patent US9546156B2, “N-bicyclic aryl,N'-pyrazolyl urea, thiourea, guanidine cyanoguanidine compounds as TrkA kinase inhibitors” (Array BioPharma Inc., priority 2012, dated 2017)

What was measured:
Test in all cases: Off-target kinase profiling (KinaseProfiler)
Format in all cases: biochemical
Settings in all cases: 10 μM, ATP near Km
CAMK4 = target: T1, CAMK4 (Homo sapiens, UniProt Q16566)
T1 construct: purchased Millipore, Inc. (KinaseProfiler service)
How it was run: (§1)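 Read-out: residual activity as percent of control, the average of two runs. Conditions: inhibitor at 10 μM; ATP concentration matched to near the Km of the individual kinase.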

CHK2 = target: T2, CHK2 (Homo sapiens, UniProt O96017)
T2 construct: purchased Millipore, Inc. (KinaseProfiler service)
How it was run: as §1

CLK2 = target: T3, CLK2 (Homo sapiens, UniProt P49760)
T3 construct: purchased Millipore, Inc. (KinaseProfiler service)
How it was run: as §1

DMPK = target: T4, DMPK (Homo sapiens, UniProt Q09013)
T4 construct: purchased Millipore, Inc. (KinaseProfiler service)
How it was run: as §1

DYRK2 = target: T5, DYRK2 (Homo sapiens, UniProt Q92630)
T5 construct: purchased Millipore, Inc. (KinaseProfiler service)
How it was run: as §1

EphA7 = target: T6, EphA7 (Rattus norvegicus, UniProt P54759)
T6 construct: purchased Millipore, Inc. (KinaseProfiler service)
T6 sequence (P54759 577-998 limits assumed): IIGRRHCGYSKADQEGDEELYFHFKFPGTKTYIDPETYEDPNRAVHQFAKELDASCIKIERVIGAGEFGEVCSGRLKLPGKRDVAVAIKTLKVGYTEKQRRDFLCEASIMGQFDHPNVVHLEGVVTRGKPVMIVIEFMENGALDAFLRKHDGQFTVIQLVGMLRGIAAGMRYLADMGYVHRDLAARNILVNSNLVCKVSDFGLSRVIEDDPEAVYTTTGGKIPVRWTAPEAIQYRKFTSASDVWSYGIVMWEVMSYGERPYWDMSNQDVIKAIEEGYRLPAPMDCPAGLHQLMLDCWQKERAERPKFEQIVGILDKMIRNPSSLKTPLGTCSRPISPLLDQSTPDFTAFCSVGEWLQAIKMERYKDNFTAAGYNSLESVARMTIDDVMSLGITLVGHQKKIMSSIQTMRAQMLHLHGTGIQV
How it was run: as §1

EphB1 = target: T7, EphB1 (Homo sapiens, UniProt P54762)
T7 construct: purchased Millipore, Inc. (KinaseProfiler service)
How it was run: as §1

EphB3 = target: T8, EphB3 (Homo sapiens, UniProt P54753)
T8 construct: purchased Millipore, Inc. (KinaseProfiler service)
How it was run: as §1

FGFR2 = target: T9, FGFR2 (Homo sapiens, UniProt P21802)
T9 construct: purchased Millipore, Inc. (KinaseProfiler service)
How it was run: as §1

Flt1 = target: T10, Flt1 (Homo sapiens, UniProt P17948)
T10 construct: purchased Millipore, Inc. (KinaseProfiler service)
How it was run: as §1

Flt4 = target: T11, Flt4 (Homo sapiens, UniProt P35916)
T11 construct: purchased Millipore, Inc. (KinaseProfiler service)
How it was run: as §1

Fyn = target: T12, Fyn (Homo sapiens, UniProt P06241)
T12 construct: purchased Millipore, Inc. (KinaseProfiler service)
How it was run: as §1

GRK5 = target: T13, GRK5 (Homo sapiens, UniProt P34947)
T13 construct: purchased Millipore, Inc. (KinaseProfiler service)
How it was run: as §1

HIPK3 = target: T14, HIPK3 (Homo sapiens, UniProt Q9H422)
T14 construct: purchased Millipore, Inc. (KinaseProfiler service)
How it was run: as §1

JNK3 = target: T15, JNK3 (Homo sapiens, UniProt P53779)
T15 construct: purchased Millipore, Inc. (KinaseProfiler service)
T15 sequence (P53779 whole entry): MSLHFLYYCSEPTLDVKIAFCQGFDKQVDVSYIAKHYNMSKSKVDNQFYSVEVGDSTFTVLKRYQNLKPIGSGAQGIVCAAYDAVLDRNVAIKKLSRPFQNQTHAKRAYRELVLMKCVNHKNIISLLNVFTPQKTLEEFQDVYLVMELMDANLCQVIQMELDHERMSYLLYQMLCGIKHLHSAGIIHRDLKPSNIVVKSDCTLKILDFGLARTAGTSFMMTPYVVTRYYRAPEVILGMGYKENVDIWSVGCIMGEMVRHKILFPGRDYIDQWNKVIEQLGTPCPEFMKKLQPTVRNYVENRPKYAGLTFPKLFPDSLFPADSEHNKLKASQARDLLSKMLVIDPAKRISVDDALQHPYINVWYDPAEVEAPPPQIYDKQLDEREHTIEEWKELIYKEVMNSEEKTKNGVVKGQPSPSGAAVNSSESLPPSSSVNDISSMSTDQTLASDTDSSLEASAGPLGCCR
How it was run: as §1

MARK1 = target: T16, MARK1 (Homo sapiens, UniProt Q9P0L2)
T16 construct: purchased Millipore, Inc. (KinaseProfiler service)
T16 sequence (Q9P0L2 whole entry): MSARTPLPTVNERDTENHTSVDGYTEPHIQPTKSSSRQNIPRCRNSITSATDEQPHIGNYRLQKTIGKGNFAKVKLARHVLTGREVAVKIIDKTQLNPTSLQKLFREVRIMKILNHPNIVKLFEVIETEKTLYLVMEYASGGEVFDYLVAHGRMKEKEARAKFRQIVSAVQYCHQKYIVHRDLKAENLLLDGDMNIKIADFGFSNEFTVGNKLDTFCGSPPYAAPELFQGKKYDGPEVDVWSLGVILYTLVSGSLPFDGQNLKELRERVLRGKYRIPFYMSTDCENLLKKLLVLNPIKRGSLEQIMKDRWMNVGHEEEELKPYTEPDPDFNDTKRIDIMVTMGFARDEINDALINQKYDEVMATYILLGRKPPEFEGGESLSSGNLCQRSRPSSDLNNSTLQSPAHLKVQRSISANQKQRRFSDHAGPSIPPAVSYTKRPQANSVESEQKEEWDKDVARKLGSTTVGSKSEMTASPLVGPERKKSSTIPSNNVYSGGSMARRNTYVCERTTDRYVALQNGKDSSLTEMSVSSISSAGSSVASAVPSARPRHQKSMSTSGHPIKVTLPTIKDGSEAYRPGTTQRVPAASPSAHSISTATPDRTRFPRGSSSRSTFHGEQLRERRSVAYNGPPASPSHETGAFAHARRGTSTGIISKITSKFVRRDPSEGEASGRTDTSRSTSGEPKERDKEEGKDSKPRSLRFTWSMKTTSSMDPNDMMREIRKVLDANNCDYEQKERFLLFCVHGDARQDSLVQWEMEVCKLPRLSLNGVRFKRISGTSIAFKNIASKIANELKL
How it was run: as §1

MARK2 = target: T17, MARK2 (Homo sapiens, UniProt Q7KZI7)
T17 construct: purchased Millipore, Inc. (KinaseProfiler service)
How it was run: as §1

MELK = target: T18, MELK (Homo sapiens, UniProt Q14680)
T18 construct: purchased Millipore, Inc. (KinaseProfiler service)
How it was run: as §1

MSK1 = target: T19, MSK1 (Homo sapiens, UniProt O75582)
T19 construct: purchased Millipore, Inc. (KinaseProfiler service)
How it was run: as §1

MSK2 = target: T20, MSK2 (Homo sapiens, UniProt O75676)
T20 construct: purchased Millipore, Inc. (KinaseProfiler service)
How it was run: as §1

MSSK1 = target: T21, MSSK1 (Homo sapiens, UniProt Q9UPE1)
T21 construct: purchased Millipore, Inc. (KinaseProfiler service)
How it was run: as §1

MST2 = target: T22, MST2 (Homo sapiens, UniProt Q13188)
T22 construct: purchased Millipore, Inc. (KinaseProfiler service)
How it was run: as §1

MYLK = target: T23, MYLK (Homo sapiens, UniProt Q15746)
T23 construct: purchased Millipore, Inc. (KinaseProfiler service)
How it was run: as §1

NLK = target: T24, NLK (Homo sapiens, UniProt Q9UBE8)
T24 construct: purchased Millipore, Inc. (KinaseProfiler service)
T24 sequence (Q9UBE8 whole entry): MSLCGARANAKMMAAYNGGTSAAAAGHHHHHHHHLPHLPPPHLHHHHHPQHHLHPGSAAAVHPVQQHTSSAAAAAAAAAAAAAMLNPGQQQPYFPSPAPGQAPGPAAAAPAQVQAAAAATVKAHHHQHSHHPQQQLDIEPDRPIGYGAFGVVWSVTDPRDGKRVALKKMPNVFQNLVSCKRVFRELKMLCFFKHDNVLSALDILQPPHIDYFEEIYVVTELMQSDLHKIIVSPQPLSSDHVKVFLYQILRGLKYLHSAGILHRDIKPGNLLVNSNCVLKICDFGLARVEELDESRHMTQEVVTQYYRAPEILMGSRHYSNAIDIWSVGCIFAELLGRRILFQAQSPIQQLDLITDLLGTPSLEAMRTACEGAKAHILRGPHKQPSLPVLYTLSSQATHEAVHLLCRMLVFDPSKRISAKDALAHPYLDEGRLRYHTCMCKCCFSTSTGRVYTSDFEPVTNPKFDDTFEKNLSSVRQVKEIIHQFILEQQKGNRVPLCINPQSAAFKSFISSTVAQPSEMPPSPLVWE
How it was run: as §1

PAK4 = target: T25, PAK4 (Homo sapiens, UniProt O96013)
T25 construct: purchased Millipore, Inc. (KinaseProfiler service)
How it was run: as §1

PASK = target: T26, PASK (Homo sapiens, UniProt Q96RG2)
T26 construct: purchased Millipore, Inc. (KinaseProfiler service)
How it was run: as §1

PKCbetaII = target: T27, PKCbetaII (Homo sapiens, UniProt P05771)
T27 construct: purchased Millipore, Inc. (KinaseProfiler service)
How it was run: as §1

PKCepsilon = target: T28, PKCepsilon (Homo sapiens, UniProt Q02156)
T28 construct: purchased Millipore, Inc. (KinaseProfiler service)
How it was run: as §1

PKD2 = target: T29, PKD2 (Homo sapiens, UniProt Q9BZL6)
T29 construct: purchased Millipore, Inc. (KinaseProfiler service)
How it was run: as §1

Pim-1 = target: T30, Pim-1 (Homo sapiens, UniProt P11309)
T30 construct: purchased Millipore, Inc. (KinaseProfiler service)
How it was run: as §1

ROCK-I = target: T31, ROCK-I (Homo sapiens, UniProt Q13464)
T31 construct: purchased Millipore, Inc. (KinaseProfiler service)
How it was run: as §1

ROCK-II = target: T32, ROCK-II (Homo sapiens, UniProt O75116)
T32 construct: purchased Millipore, Inc. (KinaseProfiler service)
How it was run: as §1

Ros = target: T33, Ros (Homo sapiens, UniProt P08922)
T33 construct: purchased Millipore, Inc. (KinaseProfiler service)
T33 sequence (P08922 28-2347): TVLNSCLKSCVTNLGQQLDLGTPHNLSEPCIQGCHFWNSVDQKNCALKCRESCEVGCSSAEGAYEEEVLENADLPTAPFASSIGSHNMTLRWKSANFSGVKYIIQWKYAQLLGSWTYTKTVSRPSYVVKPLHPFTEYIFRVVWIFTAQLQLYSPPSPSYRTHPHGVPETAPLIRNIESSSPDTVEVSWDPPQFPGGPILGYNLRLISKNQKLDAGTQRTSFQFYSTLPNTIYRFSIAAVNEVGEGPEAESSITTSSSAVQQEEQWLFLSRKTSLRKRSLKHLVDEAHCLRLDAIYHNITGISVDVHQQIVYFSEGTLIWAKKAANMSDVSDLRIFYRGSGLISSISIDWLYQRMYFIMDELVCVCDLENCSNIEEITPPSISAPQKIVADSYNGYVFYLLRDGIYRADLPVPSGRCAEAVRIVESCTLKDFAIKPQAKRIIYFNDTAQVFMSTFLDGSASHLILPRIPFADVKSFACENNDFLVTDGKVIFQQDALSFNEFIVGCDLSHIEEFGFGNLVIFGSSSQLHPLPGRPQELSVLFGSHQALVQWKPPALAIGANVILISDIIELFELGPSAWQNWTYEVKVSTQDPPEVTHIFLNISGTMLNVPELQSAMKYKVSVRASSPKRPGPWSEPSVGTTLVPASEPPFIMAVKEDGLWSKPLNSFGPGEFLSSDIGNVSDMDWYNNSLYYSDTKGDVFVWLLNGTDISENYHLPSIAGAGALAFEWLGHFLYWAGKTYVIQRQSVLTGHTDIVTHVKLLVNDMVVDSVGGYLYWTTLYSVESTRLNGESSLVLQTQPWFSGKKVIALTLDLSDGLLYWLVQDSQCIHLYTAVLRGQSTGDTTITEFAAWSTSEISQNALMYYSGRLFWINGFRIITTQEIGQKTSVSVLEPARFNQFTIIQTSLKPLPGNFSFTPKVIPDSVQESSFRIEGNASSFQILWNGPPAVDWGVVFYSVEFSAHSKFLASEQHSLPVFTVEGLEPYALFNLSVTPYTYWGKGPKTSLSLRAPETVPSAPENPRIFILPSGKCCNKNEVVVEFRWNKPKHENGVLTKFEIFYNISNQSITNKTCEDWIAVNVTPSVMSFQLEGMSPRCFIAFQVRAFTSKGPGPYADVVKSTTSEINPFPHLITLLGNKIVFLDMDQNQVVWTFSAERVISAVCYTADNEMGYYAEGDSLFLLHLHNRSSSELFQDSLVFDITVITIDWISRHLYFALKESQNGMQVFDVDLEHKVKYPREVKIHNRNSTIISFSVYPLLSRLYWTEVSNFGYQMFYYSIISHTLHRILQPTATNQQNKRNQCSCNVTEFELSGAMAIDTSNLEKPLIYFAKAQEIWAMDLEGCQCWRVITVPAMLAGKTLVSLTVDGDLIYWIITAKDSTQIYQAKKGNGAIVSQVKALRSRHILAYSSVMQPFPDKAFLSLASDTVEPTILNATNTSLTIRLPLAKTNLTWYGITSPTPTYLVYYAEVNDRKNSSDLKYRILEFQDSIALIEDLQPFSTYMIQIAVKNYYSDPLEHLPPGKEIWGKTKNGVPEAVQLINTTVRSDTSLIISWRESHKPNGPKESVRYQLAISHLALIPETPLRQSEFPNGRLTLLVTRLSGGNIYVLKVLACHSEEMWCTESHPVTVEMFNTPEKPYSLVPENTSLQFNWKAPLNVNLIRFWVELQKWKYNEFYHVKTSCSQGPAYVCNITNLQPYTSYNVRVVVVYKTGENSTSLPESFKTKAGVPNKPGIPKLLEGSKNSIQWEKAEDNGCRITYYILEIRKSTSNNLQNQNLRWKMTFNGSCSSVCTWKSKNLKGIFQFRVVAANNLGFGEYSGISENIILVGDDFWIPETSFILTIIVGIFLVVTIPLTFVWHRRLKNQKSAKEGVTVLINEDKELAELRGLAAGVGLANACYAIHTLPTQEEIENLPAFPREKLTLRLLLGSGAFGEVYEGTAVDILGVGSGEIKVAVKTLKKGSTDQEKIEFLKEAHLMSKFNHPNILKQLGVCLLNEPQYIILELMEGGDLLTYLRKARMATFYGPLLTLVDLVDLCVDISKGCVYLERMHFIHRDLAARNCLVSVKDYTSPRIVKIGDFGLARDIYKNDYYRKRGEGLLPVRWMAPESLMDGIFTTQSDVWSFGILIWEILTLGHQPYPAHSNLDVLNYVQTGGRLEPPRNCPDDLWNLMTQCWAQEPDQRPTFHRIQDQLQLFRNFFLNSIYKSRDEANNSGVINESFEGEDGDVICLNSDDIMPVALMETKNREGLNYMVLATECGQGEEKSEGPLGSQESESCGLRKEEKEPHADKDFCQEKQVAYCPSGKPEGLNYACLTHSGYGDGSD
How it was run: as §1

Rsk1 = target: T34, Rsk1 (Homo sapiens, UniProt Q15418)
T34 construct: purchased Millipore, Inc. (KinaseProfiler service)
How it was run: as §1

SRC = target: T35, SRC (Homo sapiens, UniProt P12931)
T35 construct: purchased Millipore, Inc. (KinaseProfiler service)
How it was run: as §1

SRPK2 = target: T36, SRPK2 (Homo sapiens, UniProt P78362)
T36 construct: purchased Millipore, Inc. (KinaseProfiler service)
How it was run: as §1

TAO2 = target: T37, TAO2 (Homo sapiens, UniProt Q9UL54)
T37 construct: purchased Millipore, Inc. (KinaseProfiler service)
How it was run: as §1

TNK2 = target: T38, TNK2 (Homo sapiens, UniProt Q07912)
T38 construct: purchased Millipore, Inc. (KinaseProfiler service)
How it was run: as §1

TrkA = target: T39, TrkA (Homo sapiens, UniProt P04629)
T39 construct: purchased Millipore, Inc. (KinaseProfiler service)
How it was run: as §1

VRK2 = target: T40, VRK2 (Homo sapiens, UniProt Q86Y07)
T40 construct: purchased Millipore, Inc. (KinaseProfiler service)
T40 sequence (Q86Y07 whole entry): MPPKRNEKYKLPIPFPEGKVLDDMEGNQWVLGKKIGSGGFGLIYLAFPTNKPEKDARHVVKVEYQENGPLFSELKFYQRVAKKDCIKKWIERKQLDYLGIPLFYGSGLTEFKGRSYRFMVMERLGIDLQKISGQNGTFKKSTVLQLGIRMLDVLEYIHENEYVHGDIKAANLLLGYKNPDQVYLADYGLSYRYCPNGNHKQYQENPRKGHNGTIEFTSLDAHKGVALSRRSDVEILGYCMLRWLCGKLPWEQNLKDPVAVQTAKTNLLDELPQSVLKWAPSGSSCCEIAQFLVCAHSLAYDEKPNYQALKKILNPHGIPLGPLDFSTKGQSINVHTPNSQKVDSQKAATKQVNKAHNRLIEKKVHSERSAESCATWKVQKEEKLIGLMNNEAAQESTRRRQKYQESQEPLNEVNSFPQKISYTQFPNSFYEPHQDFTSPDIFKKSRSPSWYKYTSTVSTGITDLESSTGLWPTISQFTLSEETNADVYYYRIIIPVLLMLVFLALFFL
How it was run: as §1

p70S6K = target: T41, p70S6K (Homo sapiens, UniProt P23443)
T41 construct: purchased Millipore, Inc. (KinaseProfiler service)
How it was run: as §1

Avg POC (CAMK4): 127 POC
Avg POC (CHK2): 110.5 POC
Avg POC (CLK2): 135 POC
Avg POC (DMPK): 110.5 POC
Avg POC (DYRK2): 99 POC
Avg POC (EphA7): 107 POC
Avg POC (EphB1): 122 POC
Avg POC (EphB3): 102.5 POC
Avg POC (FGFR2): 110 POC
Avg POC (Flt1): 115.5 POC
Avg POC (Flt4): 108 POC
Avg POC (Fyn): 112.5 POC
Avg POC (GRK5): 108 POC
Avg POC (HIPK3): 109.5 POC
Avg POC (JNK3): 132 POC
Avg POC (MARK1): 94.5 POC
Avg POC (MARK2): 114 POC
Avg POC (MELK): 135.5 POC
Avg POC (MSK1): 132 POC
Avg POC (MSK2): 107 POC
Avg POC (MSSK1): 136.5 POC
Avg POC (MST2): 115 POC
Avg POC (MYLK): 109.5 POC
Avg POC (NLK): 113.5 POC
Avg POC (PAK4): 112.5 POC
Avg POC (PASK): 164.5 POC
Avg POC (PKCbetaII): 106.5 POC
Avg POC (PKCepsilon): 137 POC
Avg POC (PKD2): 106 POC
Avg POC (Pim-1): 124.5 POC
Avg POC (ROCK-I): 118 POC
Avg POC (ROCK-II): 105 POC
Avg POC (Ros): 117.5 POC
Avg POC (Rsk1): 226.5 POC
Avg POC (SRC): 121.5 POC
Avg POC (SRPK2): 105.5 POC
Avg POC (TAO2): 119.5 POC
Avg POC (TNK2): 115 POC
Avg POC (TrkA): 2 POC
Avg POC (VRK2): 110 POC
Avg POC (p70S6K): 218 POC
SMILES: COCc1ccc2cccc(NC(=O)Nc3c(C)c(-c4cnn(C)c4)nn3-c3ccccc3)c2c1 [Example 16, 1-(1′,4-dimethyl-1-phenyl-1H,1′H-[3,4′-bipyrazol]-5-yl)-3-(7-(methoxymethyl)naphthalen-1-yl)urea]
